These results are taken from patent US20250213587A1, “ITK INHIBITORS FOR INCREASING TH1 CELL ACTIVITY” (Corvus Pharmaceuticals, Inc., priority 2022, published 2025).

In one assay the target is T1, ITK Cys-442 (Homo sapiens, UniProt Q08881).
T1 construct: The protein construct comprised amino acids 2 to 620 of ITK; purchased Cama Bioscience (so in the source)
Briefly: Mass spectrometry of chymotryptic digest of inhibited ITK. The note with it: LC MS/MS, 5-fold molar excess. The format is binding. On the procedure:
ITK was obtained as a glutathione S transferase (GST) fusion protein from Cama Bioscience (Product Number 08 081, Lot 13CBS 0356K). The protein was supplied at 586 μg/mL (5.9 μM ITK) in 50 mM TRIS, 150 mM NaCl, 0.05% Brij35, 1 mM dithiothreitol, and 10% glycerol at pH 7.5. The protein construct comprised amino acids 2 to 620 of ITK and is fused to GST at the N terminus of ITK (ITK GST). To prepare the samples for mass spectral analysis, a 2 μM sample of the ITK GST fusion protein was incubated with a 5-fold molar excess of CPI 818 (10 μM). A control, untreated sample of ITK GST was prepared in parallel. […] After the incubation phase, samples were frozen and stored at −80° C. Mass spectral analysis was conducted in collaboration with the Stanford University mass spectrometry facility. The control, untreated ITK GST fusion protein, and the CPI 818 inhibited sample were subjected to chymotrypsin digestion and then analyzed by liquid chromatography coupled with tandem mass spectrometry (LC MS/MS). […] Ions electrosprayed from this column were detected using an Orbitrap Fusion mass spectrometer (Thermo Scientific, San Jose, CA) operated in a data dependent fashion using both ETD and HCD fragmentation to improve detection efficiency of modified peptides. […] Peptides were constrained to 12 ppm mass accuracy for precursor ions, and 0.4 Da mass accuracies for fragment ions detected in the ion trap. […]

Another assay addresses T2, ITK (Mus musculus, UniProt Q03526).
T2 construct: from tissue; host or cells: splenocytes of dosed C57Bl/6 mice
T2 sequence (Q03526 1-625): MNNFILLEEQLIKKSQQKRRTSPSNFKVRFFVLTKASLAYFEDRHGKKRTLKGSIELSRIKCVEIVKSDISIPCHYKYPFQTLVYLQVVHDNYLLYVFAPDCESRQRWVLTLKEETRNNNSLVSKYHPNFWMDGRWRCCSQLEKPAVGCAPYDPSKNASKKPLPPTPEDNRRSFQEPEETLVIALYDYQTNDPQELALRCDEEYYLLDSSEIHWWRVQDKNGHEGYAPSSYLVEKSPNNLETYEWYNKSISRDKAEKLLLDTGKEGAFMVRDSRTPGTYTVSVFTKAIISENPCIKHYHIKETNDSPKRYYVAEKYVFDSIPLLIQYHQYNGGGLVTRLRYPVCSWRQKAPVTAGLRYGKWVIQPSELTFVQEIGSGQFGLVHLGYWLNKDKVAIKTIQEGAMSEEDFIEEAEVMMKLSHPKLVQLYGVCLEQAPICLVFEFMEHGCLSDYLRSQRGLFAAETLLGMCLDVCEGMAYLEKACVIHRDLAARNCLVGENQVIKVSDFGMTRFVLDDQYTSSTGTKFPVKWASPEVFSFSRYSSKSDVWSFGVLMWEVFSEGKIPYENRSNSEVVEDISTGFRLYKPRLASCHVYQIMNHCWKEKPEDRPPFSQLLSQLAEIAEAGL
The experiment in a line: ITK occupancy in mouse splenocytes. The class given is in vivo. The note with it: for receptor occupancy at 50 mg/kg: po. On the procedure: The active site occupancy of ITK by a covalent inhibitor was measured using an irreversibly bound biotinylated probe in an immuno-electrochemiluminescence assay. The binding of an inhibitor and the probe to the ATP binding site is mutually exclusive. In lysates of immune cell lines or immune cells collected from treated animals, the biotinylated probe reacts with free (uninhibited) ITK and is subsequently captured on a streptavidin-coated surface and quantified. The free ITK in each sample is normalized by dividing it by either the lysate protein concentration (BCA protein assay, Pierce) or cell count of the sample. Normalized free ITK values are generated for samples collected prior to and after treatment from which occupancy was calculated using equation 7. Single cell suspensions of Jurkat cells, mouse splenocytes, dog PBMC or purified normal human T cells were prepared. Cell lysis was performed using a buffer containing CelLytic M (Sigma Aldrich) supplemented with protease and phosphatase inhibitors (Pierce). The cell pellet resuspended in lysis buffer was incubated at room temperature for 30 minutes when the lysate was clarified by centrifugation at 20,000×g for 5 minutes at 4° C. A solution of the biotinylated probe CP-613 (27.5 nM final, FIG. 14B) was added to the lysate and incubated with mixing for 60 minutes at room temperature. The lysate mixture (35 μL) was transferred in duplicate to separate wells of a blocked streptavidin-coated plate (Mesoscale Diagnostics) then incubated at room temperature with mixing for 60 minutes. The lysate mixture was removed from the plate and the wells were washed with three rounds of PBS/Tween 20 buffer (Thermo Scientific). Rabbit polyclonal anti-ITK antibody solution (Abcam) was dispensed into the wells of the plate and incubated at room temperature with mixing for 60 minutes. The antibody solution was removed from the wells and washed with three rounds of PBS/Tween 20 buffer. Anti-rabbit antibody (goat) sulfo-TAG (Mesoscale Diagnostics) was dispensed into the wells of the plate then incubated at room temperature with mixing for 60 minutes. The antibody solution was removed from the plate and the wells washed with three rounds of PBS/Tween 20 buffer. Read buffer (Mesoscale Diagnostics) diluted two-fold with water was dispensed into the wells of the plate which was read immediately using an MESO Quickplex SQ 120 instrument.
Male C57Bl/6 mice (6-8 weeks of age) were purchased from Charles River Laboratories. […] At scheduled time points mice were euthanized by asphyxiation by CO2 and their spleens were collected immediately and placed into ice cold PBS (N=4/timepoint). All animal procedures were conducted in accordance with a protocol approved by the IACUC committee at Corvus Pharmaceuticals.

T1 sequence (Q08881 2-620): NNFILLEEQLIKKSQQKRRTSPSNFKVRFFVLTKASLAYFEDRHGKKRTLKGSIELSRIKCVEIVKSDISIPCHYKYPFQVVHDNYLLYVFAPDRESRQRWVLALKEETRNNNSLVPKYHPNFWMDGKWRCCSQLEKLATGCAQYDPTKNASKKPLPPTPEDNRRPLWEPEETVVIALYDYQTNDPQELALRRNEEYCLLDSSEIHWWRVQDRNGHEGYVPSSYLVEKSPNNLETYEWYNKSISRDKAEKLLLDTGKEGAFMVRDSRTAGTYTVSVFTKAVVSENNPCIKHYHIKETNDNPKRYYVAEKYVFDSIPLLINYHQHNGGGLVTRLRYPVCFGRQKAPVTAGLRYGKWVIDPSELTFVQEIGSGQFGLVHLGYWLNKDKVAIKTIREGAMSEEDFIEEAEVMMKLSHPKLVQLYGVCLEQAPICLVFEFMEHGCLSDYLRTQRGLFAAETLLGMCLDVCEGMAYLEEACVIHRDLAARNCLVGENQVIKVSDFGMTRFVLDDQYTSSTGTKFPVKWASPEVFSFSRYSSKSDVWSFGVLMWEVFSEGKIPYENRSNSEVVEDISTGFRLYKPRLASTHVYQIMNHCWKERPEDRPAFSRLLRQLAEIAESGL

As to `C=CC(=O)N1CCCN(C(=O)c2cc(Sc3cnc(NC(=O)C4CC4)s3)c(C)cc2OC)C[C@H]1C` [CPI-818], the “covalent modification of ITK peptides” value at ITK Cys-442 was “covalently labeling Cys-442”. Besides, the receptor occupancy at 300 mg/kg/day at ITK (mouse, chow formulation, 300 mg/kg/day) was in the range of 86 to 95%. In addition, the receptor occupancy at 50 mg/kg at ITK (mouse, 50 mg/kg BID PO, 2 h after dosing) was 95%; at ITK (mouse, 50 mg/kg BID PO, 12 h, prior to second dose), 36%; at ITK (mouse, single 50 mg/kg PO, 24 h), 17%; on ITK (mouse, single 50 mg/kg PO, first 8 h) it was 87 to 98%. The “ITK occupancy in splenocytes” value at ITK (single 50 mg/kg PO, first 8 h, 50 mg/kg) is recorded as greater than 87%. The ITK occupancy result at ITK (single dose, 30 to 120 min) was “essentially complete ITK occupancy”.
